Data from patent publication US8124629B2, “Naphthylacetic acids” (Hoffmann-La Roche Inc., priority 2008, dated 2012).

molecular target: T1, human CRTH2 (Homo sapiens, UniProt Q9Y5Y4); test: Human CRTH2 Receptor Binding Assay (whole cell, [3H]ramatroban); parameters: expressed in transfected cells; host or cells: CHO-K1; settings: CHO-K1 cells expressing human CRTH2 and G-alpha16; 20 nM [3H]ramatroban; 1 hour, room temperature
T1 sequence (Q9Y5Y4 1-395): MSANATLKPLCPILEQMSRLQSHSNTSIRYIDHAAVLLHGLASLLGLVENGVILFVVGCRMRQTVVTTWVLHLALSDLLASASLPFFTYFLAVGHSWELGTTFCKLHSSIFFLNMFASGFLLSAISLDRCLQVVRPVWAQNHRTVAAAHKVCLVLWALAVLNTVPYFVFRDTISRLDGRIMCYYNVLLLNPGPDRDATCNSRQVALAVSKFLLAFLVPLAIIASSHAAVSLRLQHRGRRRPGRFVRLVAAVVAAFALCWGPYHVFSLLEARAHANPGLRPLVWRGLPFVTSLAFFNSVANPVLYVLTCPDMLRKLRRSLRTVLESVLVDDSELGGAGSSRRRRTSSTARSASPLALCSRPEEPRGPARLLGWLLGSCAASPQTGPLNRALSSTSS
Text: A whole cell receptor binding assay using [^3H]ramatroban as the competing radioactive ligand was employed to evaluate the compound binding activity to human CRTH2. The radioactive ligand [^3H]ramatroban was synthesized according to Sugimoto et. al. (Eur. J. Pharmacol. 524, 30-37, 2005) to a specific activity of 42 Ci/mmol.
A cell line stably expressing human CRTH2 was established by transfecting CHO-K1 cells with two mammalian expression vectors that harbored human CRTH2 and G-alpha16 cDNAs, respectively, using FuGene® 6 transfection reagent (from Roche). Stable clones expressing CRTH2 were selected by staining each clone with BM16 (BD Pharmingen™ from BD Biosciences, a division of Becton, Dickinson and Company), which is a rat monoclonal antibody to human CRTH2. The cells were maintained as monolayer cultures in Ham's F-12 medium containing 10% fetal bovine serum, 100 units/mL penicillin, 100 μg/mL streptomycin, 2 mM glutamine, 0.5 mg/mL G418 (geneticin) for CRTH2, and 0.2 mg/mL hygromycin-B (for G-alpha 16). For whole cell receptor binding assay, the monolayer cells were rinsed once with PBS (phosphate buffered saline), dissociated using ethylenediaminetetraacetate (Versene™ EDTA from Lonza Inc.), and suspended in PBS containing 10 mM MgCl2 and 0.06% BSA (bovine serum albumin) at 1.5×10^6 cells/mL.
The binding reactions (0.2 mL) were performed in 96-well plates at room temperature in PBS containing 1.5×10^5 cells, 10 mM MgCl2, 0.06% BSA, 20 nM [^3H]ramatroban, and test compound at various concentrations. After 1 hour of binding reactions, the cells were harvested on GF™/B filter microplates (microtiter plates with embedded glass fiber from Perkin Elmer, Inc.) and washed 5 times with PBS using a Filtermate™ Harvester (a cell harvester that harvests and washes cells from microplates from PerkinElmer, Inc.). The radioactivities bound to the cells were determined using a microplate scintillation counter (TopCount® NXT, from PerkinElmer, Inc.) after adding 50 μL of Microscint™ 20 scintillation fluid (from PerkinElmer, Inc.) to each well of the filter plates. The radioactivity from non-specific binding was determined by replacing compound with 10 μM of 15(R)-15-methyl PGD2 (from Cayman Chemical Company) in the reaction mixtures. The radioactivity bound to the cells in the absence of compound (total binding) was determined by replacing compound with 0.25% of DMSO (dimethyl sulfoxide) in the reaction mixture. Specific binding data were obtained by subtracting the radioactivity of non-specific binding from each binding data.
The IC50 value is defined as the concentration of the tested compound that is required for 50% inhibition of total specific binding. In order to calculate the IC50 value, the percent inhibition data were determined for 7 concentrations for each compound. The percent inhibition for a compound at each concentration was calculated according to the following formula, [1-(specific binding in the presence of compound)/(total specific binding)]×100. The IC50 value was then obtained by fitting the percent inhibition data to a sigmoidal dose-response (4 parameter logistic) model in the XLfit® software Excel add-in program [from ID Business Solutions Ltd., model 205, where F(x)=(A+(B−A)/(1+((C/×)^D)))].

Structure (SMILES) | IC50
CC(C)(C)OC(=O)N1CCN(S(=O)(=O)c2ccc(C(=O)c3cc(CC(=O)O)cc4ccc(F)cc34)cc2)CC1 [Example 4-2] | 26.7 nM
Cc1c(CC(=O)O)cc2ccc(F)cc2c1C(=O)c1ccc(S(C)(=O)=O)cc1 [Example 6-1, [6-fluoro-4-(4-methanesulfonyl-benzoyl)-3-methyl-naphthalen-2-yl]-acetic acid] | 2.1 nM
Cc1c(CC(=O)O)cc2ccc(Cl)cc2c1C(=O)c1ccc(S(C)(=O)=O)cc1 [Example 6-2, [6-Chloro-4-(4-methanesulfonyl-benzoyl)-3-methyl-naphthalen-2-yl]-acetic acid] | 3.7 nM
CCS(=O)(=O)c1ccc(C(=O)c2c(C)c(CC(=O)O)cc3ccc(F)cc23)cc1 [Example 6-3, [4-(4-Ethanesulfonyl-benzoyl)-6-fluoro-3-methyl-naphthalen-2-yl]-acetic acid] | 2.4 nM
Cc1ccc2cc(CC(=O)O)cc(Cc3ccc(S(C)(=O)=O)cc3)c2c1 [Example 8-1, [4-(4-Methanesulfonyl-benzyl)-6-methyl-naphthalen-2-yl]-acetic acid] | 87.8 nM
CS(=O)(=O)c1ccc(Cc2cc(CC(=O)O)cc3ccc(C(F)(F)F)cc23)cc1 [Example 8-2, [4-(4-Methanesulfonyl-benzyl)-6-trifluoromethyl-naphthalen-2-yl]-acetic acid] | 15.3 nM
CS(=O)(=O)c1ccc(Cc2cc(CC(=O)O)cc3ccc(F)cc23)cc1 [Example 8-4, [6-Fluoro-4-(4-methanesulfonyl-benzyl)-naphthalen-2-yl]-acetic acid] | 6.1 nM
Cc1cc(S(C)(=O)=O)ccc1Cc1cc(CC(=O)O)cc2ccc(F)cc12 [Example 8-5, [6-Fluoro-4-(4-methanesulfonyl-2-methyl-benzyl)-naphthalen-2-yl]-acetic acid] | 5.3 nM
CS(=O)(=O)c1ccc(Cc2cc(CC(=O)O)cc3ccc(F)cc23)cc1C(F)(F)F [Example 8-6, [6-Fluoro-4-(4-methanesulfonyl-3-trifluoromethyl-benzyl)-naphthalen-2-yl]-acetic acid] | 5.4 nM
CCS(=O)(=O)c1ccc(Cc2cc(CC(=O)O)cc3ccc(F)cc23)c(C)c1 [Example 8-7, [4-(4-Ethanesulfonyl-2-methyl-benzyl)-6-fluoro-naphthalen-2-yl]-acetic acid] | 5.4 nM
CN(C)S(=O)(=O)c1ccc(Cc2cc(CC(=O)O)cc3ccc(F)cc23)cc1 [Example 8-8, [4-(4-Dimethylsulfamoyl-benzyl)-6-fluoro-naphthalen-2-yl]-acetic acid] | 6 nM
CCS(=O)(=O)c1ccc(Cc2cc(CC(=O)O)cc3ccc(F)cc23)cc1 [Example 8-9, [4-(4-Ethanesulfonyl-benzyl)-6-fluoro-naphthalen-2-yl]-acetic acid] | 4.3 nM
CNS(=O)(=O)c1ccc(Cc2cc(CC(=O)O)cc3ccc(F)cc23)cc1 [Example 9-1, [6-Fluoro-4-(4-methylsulfamoyl-benzyl)-naphthalen-2-yl]-acetic acid] | 3.2 nM
Cc1c(CC(=O)O)cc2ccc(F)cc2c1Cc1ccc(S(C)(=O)=O)cc1 [Example 10-1, [6-Fluoro-4-(4-methanesulfonyl-benzyl)-3-methyl-naphthalen-2-yl]-acetic acid] | 3.9 nM
Cc1c(CC(=O)O)cc2ccc(F)cc2c1Cc1cccc(S(C)(=O)=O)c1 [Example 10-2, [6-Fluoro-4-(3-methanesulfonyl-benzyl)-3-methyl-naphthalen-2-yl]-acetic acid] | 54 nM
Cc1c(CC(=O)O)cc2ccc(F)cc2c1Cc1ccc(S(=O)(=O)c2ccccc2)cc1 [Example 10-3, [4-(4-Benzenesulfonyl-benzyl)-6-fluoro-3-methyl-naphthalen-2-yl]-acetic acid] | 3.2 nM

Structure (SMILES) | IC50
Cc1c(CC(=O)O)cc2ccc(F)cc2c1Cc1ccc(Br)cc1 [Example 10-4, [4-(4-Bromo-benzyl)-6-fluoro-3-methyl-naphthalen-2-yl]-acetic acid] | 24 nM
Cc1c(CC(=O)O)cc2ccc(F)cc2c1Cc1ccc(C#N)cc1 [Example 10-5, [4-(4-Cyano-benzyl)-6-fluoro-3-methyl-naphthalen-2-yl]-acetic acid] | 12.4 nM
Cc1c(CC(=O)O)cc2ccc(F)cc2c1Cc1ccc(-n2cccn2)cc1 [Example 10-6, [6-Fluoro-3-methyl-4-(4-pyrazol-1-yl-benzyl)-naphthalen-2-yl]-acetic acid] | 26.7 nM
Cc1c(CC(=O)O)cc2ccc(F)cc2c1Cc1cccc(-c2nnnn2C)c1 [Example 10-7, (6-Fluoro-3-methyl-4-[3-(1-methyl-1H-tetrazol-5-yl)-benzyl]-naphthalen-2-yl]-acetic acid] | 6.7 nM
Cc1c(CC(=O)O)cc2ccc(F)cc2c1Cc1ccc(OCc2ccccc2)cc1 [Example 10-8, [4-(4-Benzyloxy-benzyl)-6-fluoro-3-methyl-naphthalen-2-yl]-acetic acid] | 5 nM
Cc1c(CC(=O)O)cc2ccc(F)cc2c1Cc1cccc(C#N)c1 [Example 10-9, [4-(3-Cyano-benzyl)-6-fluoro-3-methyl-naphthalen-2-yl]-acetic acid] | 59.9 nM
Cc1c(CC(=O)O)cc2ccc(F)cc2c1Cc1ccc(-c2nnnn2C)cc1 [Example 10-10, {6-Fluoro-3-methyl-4-[4-(1-methyl-1H-tetrazol-5-yl)-benzyl]-naphthalen-2-yl}-acetic acid] | 32.5 nM
Cc1c(CC(=O)O)cc2ccc(F)cc2c1Cc1ccc(SCc2ccccc2)cc1 [Example 10-11, [4-(4-Benzylsulfanyl-benzyl)-6-fluoro-3-methyl-naphthalen-2-yl]-acetic acid] | 3.5 nM
Cc1c(CC(=O)O)cc2ccc(Cl)cc2c1Cc1ccc(S(C)(=O)=O)cc1 [Example 10-12, [6-Chloro-4-(4-methanesulfonyl-benzyl)-3-methyl-naphthalen-2-yl]-acetic acid] | 10 nM
Cc1c(CC(=O)O)cc2ccc(F)cc2c1Cc1cccc(S(=O)(=O)C(F)(F)F)c1 [Example 11-2, [6-Fluoro-3-methyl-4-(3-trifluoromethanesulfonyl-benzyl)-naphthalen-2-yl]-acetic acid] | 68 nM
Cc1c(CC(=O)O)cc2ccc(F)cc2c1Cc1ccc(S(=O)(=O)Cc2ccccc2)cc1 [Example 11-3, [6-Fluoro-3-methyl-4-(4-phenylmethanesulfonyl-benzyl)-naphthalen-2-yl]-acetic acid] | 2.7 nM
Cc1c(CC(=O)O)cc2ccc(F)cc2c1Cc1ccc(-c2ccc(S(C)(=O)=O)cc2)cc1 [Example 12-1, [6-Fluoro-4-(4′-methanesulfonyl-biphenyl-4-ylmethyl)-3-methyl-naphthalen-2-yl]-acetic acid] | 5.6 nM
Cc1c(CC(=O)O)cc2ccc(F)cc2c1Cc1ccc(-c2cncnc2)cc1 [Example 12-2, [6-Fluoro-3-methyl-4-(4-pyrimidin-5-yl-benzyl)-naphthalen-2-yl]-acetic acid] | 10.2 nM
CCS(=O)(=O)c1ccc(Cc2c(C)c(CC(=O)O)cc3ccc(F)cc23)cc1 [Example 13-1, [4-(4-Ethanesulfonyl-benzyl)-6-fluoro-3-methyl-naphthalen-2-yl]-acetic acid] | 3.1 nM
Cc1c(CC(=O)O)cc2ccc(F)cc2c1Cc1ccccc1S(=O)(=O)c1ccccc1 [Example 14-1] | 5.4 nM
Cc1ccc(Cc2c(C)c(CC(=O)O)cc3ccc(F)cc23)cc1 [Example 15-1, [6-Fluoro-3-methyl-4-(4-methyl-benzyl)-naphthalen-2-yl]-acetic acid] | 60.1 nM
